Laboratory results from patent US5952473A, “Reagent and kit for determining isoprenylating activity and inhibition thereof” (priority 1993, dated 1999).

Target: T1, protein:farnesyl transferase (Oryctolagus cuniculus, UniProt G1SFC8+G1T7D9)
T1 construct: immobilised CAAX peptide A and 3H-FPP as substrates
Experiment: Inhibition of protein:farnesyl transferase activity in rabbit reticulocyte lysate (pepAsep/pepBsep, 3H-FPP)
Type: biochemical
Conditions: read-out: IC50 -value, 80 pmol peptide on Sepharose beads, 0.7 μM 3H-FPP, 30 min, 37° C., pepAsep minus pepBsep dpm
Protocol: Commercially available rabbit reticulocyte lysate contains enzymes necessary for protein-isoprenylation, such as protein:farnesyl transferase activity (Vorburger, K., Kitten, G. T. and Nigg, E. G., EMBO J. 8 (1989) 4007-4013) and protein:geranylgeranyl transferase (Maltese, W. A. and Robishaw, J. D., J. Biol. Chem. 265 (1990) 18071-18074). Using pepAsep (example I) as substrate and pepBsep (example I) as control the assay of protein:farnesyl transferase activity was performed as follows: In 25 μl of a mixture containing 5 μl of pepAsep or pepBsep (both containing an equal quantity of peptide), 13 μl rabbit reticulocyte lysate (promega), 0.5 mM MgCl2, 1 mM DTT, 50 mM Tris-HCl (pH 7.4) and [^3 H]-farnesyl pyrophosphate (^3 H-FPP; concentration as indicated in the figures; specific radioactivity 15 Ci/mmol; ARC, USA) the incubation was performed at 37° C. for 30 min with continuous shaking. […] The radioactivity bound to the Sepharose was measured in a Packaged Tricarb liquid scintillation counter. […]
80 pmol of pepAsep and pepBsep/5 μl Sepharose were incubated for 30 minutes in the presence of 0.7 μM of [^3 H]-FPP and the indicated concentrations of the farnesyl pyrophosphate analogues FPPA1 and FPPA2 as mentioned in Example IV. The farnesylation activity was calculated as ^3 H-dpm bound to pepAsep minus the pepBsep-bound-dpm and expressed as percentage of control (without inhibitor).

`CC(C)=CCCC(C)=CCCC(C)=CCP(=O)(O)OP(=O)(O)O` [FPPA2, farnesyl phosphonophosphate] was tested, and the IC50 was 0.29 ± 0.02 µM.
